Legend:
[1] = system: Jurkat human T lymphocyte cell line; experiment: Terminal deoxynucleotidyl transferase (TdT, TUNEL) apoptosis assay after incubation of compound with human serum; assay type: cell-based; settings: for EC50: Jurkat cells, 24 h, compound pre-incubated 48 hr at 37° C. in pooled human serum, concentration inducing 50% apoptosis, read-out: ED50 (nM) after 48 hr incubation with human serum; for Conversion (relative activity compared to PG490) (%): percent of ED50 relative to triptolide incubated in parallel in human serum (taken as 100%)
Protocol: (§1) Several compounds of formula I were prepared, as described in the Examples. In preliminary assays, the compounds were evaluated for their capacity to induce apoptosis in cells from the Jurkat human T lymphocyte cell line, after incubation with pooled human serum for 48 hrs at 37° C. (see Example 7). One of the compounds was also analyzed for its capacity to inhibit IL-2 production in Jurkat human T lymphocyte cells (see Example 8). Controls consisted of the compounds incubated in complete tissue culture medium (RPMI 1640 medium plus 5% heat-inactivated fetal calf serum, 1% HEPES, 1% pen/strep, 1% glutamine) rather than human serum.
(§2) The ED50/IC50 values (column 3) are calculated directly from the data in each experiment, and the % conversion values (column 4) are calculated as percent of the ED50 or IC50 value produced by triptolide, incubated in the same plasma (i.e. in the same experiment).
Pooled human serum was stored in aliquots at −80° C. Test compounds were added at 20 mM to thawed human serum in 1.5 ml microfuge tubes and incubated at 37° C. in a water bath for 48 hours. The test samples were placed on ice until dilution for the bioassay. Controls consisted of the compounds incubated in complete tissue culture medium (RPMI 1640 medium plus 5% heat-inactivated fetal calf serum, 1% HEPES, 1% pen/strep, 1% glutamine) rather than human serum.
Test samples were diluted to 1 mM in complete tissue culture medium. Aliquots were placed in microculture plates and serial dilutions were prepared so that the final concentration would encompass the range of 2 to 6,000 nM with half-log increments. Cells from an exponentially expanding culture of the Jurkat human T lymphocyte cell line (#TIB-152 obtained from American Type Culture Collection, Manassas, Va.) were harvested, washed once by centrifugation and dilution in complete tissue culture medium, and diluted to a concentration of 1×10^6 cells/ml. A volume of 100 μl of Jurkat cells (1×10^5 cells) was added to wells containing 100 μl of the diluted compounds, and the plates were incubated at 37° C. in a 5% CO2 incubator. After 24 hours, the plates were centrifuged to pellet the cells, and the cells were washed with PBS. The cells were fixed in paraformaldehyde, washed, treated with ethanol, washed and then incubated with the enzyme terminal deoxynucleotidyl transferase (TdT) and fluorescein labeled-deoxyuridine (dUTP). The process allows 3′ end labeling of DNA molecules which were nicked during the DNA fragmentation phase of apoptosis (terminal deoxynucleotidyl transferase dUTP nick end labeling; TUNEL labeling). The cells were washed, treated with ribonuclease, washed and resuspended in medium containing propidium iodide to distinguish intact apoptotic cells. The contents of the assay wells were individually transferred into test tubes, and apoptosis was analyzed using a FACSCalibur flow cytometer (BD Immunocytometry Systems, San Jose, Calif.). Cells positive for Fl-dUTP were considered to be apoptotic, and the data were calculated as percent apoptotic cells.
For the assays in sections B and C, data were plotted as the concentration of compound incubated in serum versus percent apoptotic cells, and the concentration of compound inducing 50% apoptosis (ED50) was calculated from these dose response curves. The percent conversion of the test compounds to bioactive compound (assumed to be triptolide) was calculated in reference to the result with triptolide incubated in parallel in human serum in the same experiment, as the percent of the ED50 of the compound compared to that for triptolide, which was taken as 100%.

[2] = system: HT-29 human colon cancer cell line tumor xenografts; settings: HT-29 xenografts, cited from earlier work
[3] = system: Jurkat human T lymphocyte cell line; experiment: Annexin V apoptosis assay after incubation of compound with human serum; assay type: cell-based
Protocol: as §1, §2
(§3) Pooled human serum was stored in aliquots at −80° C. […]
Test samples (incubated in human serum as described in section A) were prepared and diluted as described in section B, and Jurkat human T lymphocyte cells were prepared and added to wells containing 100 μl of the diluted compounds, also as described in section B. The plates were incubated at 37° C. in a 5% CO2 incubator. […] Cells positive for Annexin V binding were considered to be apoptotic, and the data were calculated as percent apoptotic cells. […]

[4] = system: IL-2 production in Jurkat human T lymphocyte cells; experiment: IL-2 production (inhibition) assay after incubation of compound with human serum; assay type: cell-based
Protocol: as §1, §2, §3
Test samples, incubated in human serum as described in Example 7A, were diluted to 1 mM in complete tissue culture medium. […] The stored supernatants were analyzed for human IL-2 concentration using the Luminex 100 (Luminex Corporation, Austin, Tex.), Luminex microspheres coupled with anti-IL-2 capture antibody, and fluorochrome-coupled anti-IL-2 detection antibody. The data were expressed as ng/ml of IL-2. […]

With CC(C)[C@]12O[C@H]1[C@@H]1O[C@]13[C@]1(O[C@H]1C[C@H]1C4=C(CC[C@@]13C)C(=O)OC4)[C@@H]2OC(=O)C(CCC(=O)OCc1ccccc1)NC(=O)OCc1ccccc1 (mixture of isomers) [PG657, Triptolide 14-γ-Benzyl-N-benzyloxycarbonyl-(L)-glutamate Ester, mixture with D-isomer] the EC50 [1] was 300 nM and the “Conversion (relative activity compared to PG490) (%)” value [1] was 10%.

For CC(C)C12OC1C1OC13C1(C)CCC4=C(COC4=O)C1CC1OC13C2OC(=O)CCC(=O)O (stereo not drawn) [14-succinate derivative of triptolide], the Tumor regression [2] is listed as “induced tumor regression” and the Tumor growth inhibition ([2]; in comparison to 5-FU and CPT-11) is listed as “strongly inhibited tumor growth, to a significantly greater degree than 5-FU and CPT-11”.

In the case of CC(C)[C@]12O[C@H]1[C@@H]1O[C@]13[C@]1(O[C@H]1C[C@H]1C4=C(CC[C@@]13C)C(=O)OC4)[C@@H]2OC(=O)CC[C@H](NC(=O)OC(C)(C)C)C(=O)OC(C)(C)C [PG658, Triptolide 14-N-t-Butoxycarbonyl-α-t-butyl-L-glutamate Ester], the EC50 ([1]; Homo sapiens, Jurkat) is reported as 750 nM and the “Conversion (relative activity compared to PG490) (%)” value [1] is reported as 4.0%.

With CC(C)[C@]12O[C@H]1[C@@H]1O[C@]13[C@]1(O[C@H]1C[C@H]1C4=C(CC[C@@]13C)C(=O)OC4)[C@@H]2OC(=O)CC[C@@H](NC(=O)OCc1ccccc1)C(=O)OCc1ccccc1 [PG660, Triptolide 14-α-Benzyl-N-benzyloxycarbonyl-D-glutamate Ester] the EC50 ([1]; Homo sapiens, Jurkat) was 1100 nM and the “Conversion (relative activity compared to PG490) (%)” value [1] was 2.7%.

With CC(C)[C@]12O[C@H]1[C@@H]1O[C@]13[C@]1(O[C@H]1C[C@H]1C4=C(CC[C@@]13C)C(=O)OC4)[C@@H]2OC(=O)CC[C@H](N)C(=O)O [PG661, 14-γ-L-glutamate Ester of Triptolide] the EC50 ([3]; Jurkat cells, 24 h, compound pre-incubated 48 hr at 37° C. in pooled human serum, read-out: ED50 (nM) after 48 hr incubation with human serum) was 34700 nM, the “Conversion (relative activity compared to PG490) (%)” value ([3]; percent of ED50 relative to triptolide incubated in parallel in human serum (taken as 100%)) was 0.16% and the “Conversion (relative activity compared to PG490) (%)” value ([4]; IL-2 inhibition assay, percent of IC50 relative to triptolide incubated in parallel (taken as 100%)) was 1.4%. The IC50 ([4]; IL-2 inhibition, anti-CD3/PMA-stimulated Jurkat cells, 24 h, compound pre-incubated 48 hr in human serum, 50% decrease in IL-2 concentration) was 330 nM.

— patent US6569893B2, “Amino acid derivatives of triptolide compounds as immune modulators and anticancer agents” (Pharmagenesis, Inc., priority 2001, dated 2003)
